Test results published in patent US5977110A, “Substituted cyclohexylamines as central nervous systems agents” (Warner-Lambert Company, priority 1998, dated 1999).
Counter-ions that a name gives are not always drawn. Like-named read-outs stand apart in the source and are kept apart here.

Assays:
[1] = target: T1, serotonin 5HT1A receptor (Rat Hippocampus Membranes) (Rattus norvegicus, UniProt P19327); assay: Inhibition of [^3 H]8-OH-DPAT Binding to Rat Hippocampus Membranes; details: [^3 H]-8-OH-DPAT ligand
T1 construct: Hippocampus; from tissue; host or cells: rat hippocampus membranes
T1 sequence (P19327 1-422): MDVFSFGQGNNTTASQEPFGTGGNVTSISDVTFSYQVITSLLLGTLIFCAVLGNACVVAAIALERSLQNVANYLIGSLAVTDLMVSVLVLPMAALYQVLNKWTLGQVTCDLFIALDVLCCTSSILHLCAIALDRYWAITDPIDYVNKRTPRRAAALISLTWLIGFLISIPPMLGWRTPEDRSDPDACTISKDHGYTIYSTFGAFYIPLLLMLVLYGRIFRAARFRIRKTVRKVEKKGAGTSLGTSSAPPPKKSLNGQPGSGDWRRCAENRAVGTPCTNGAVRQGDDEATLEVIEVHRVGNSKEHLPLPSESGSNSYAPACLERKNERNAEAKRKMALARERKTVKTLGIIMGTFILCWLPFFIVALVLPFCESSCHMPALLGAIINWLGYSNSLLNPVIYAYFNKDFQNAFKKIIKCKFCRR
Protocol: (§1) The compounds of Formula I are valuable dopaminergic and serotonergic agents. […] Thus, the compounds of Formula I were tested for their ability to inhibit spontaneous locomotor activity in mice, a test predictive of antipsychotic activity, according to the assay described by McLean J. R., et al., Pharmacology, Biochemistry and Behavior, 1978;8:97-99; for their ability to bind to the dopamine D2 receptor using [^3 H]-2-(N-propyl-N-2-thienylethylamino)-5-hydroxytetralin ([^3 H)N-0437) as the ligand according to the method disclosed in Van der Weide J., et al., Eur. J. Pharmacol., 1987;134:211-219; and for their ability to bind to the serotonin 5HT1A receptor using [^3 H]-8-hydroxy-dipropylaminotetralin ([^3 H]-8-OH-DPAT) as the ligand according to the method disclosed in Peroutka S. J., et al., Brain Res., 1985;344:167-171. The above test methods are incorporated herein by reference. The data in the table show the dopaminergic and serotonergic activity of representative compounds of Formula I.

[2] = system: spontaneous locomotor activity in mice; assay: Inhibition of spontaneous locomotor activity in mice, a test predictive of antipsychotic activity; assay type: in vivo; details: Mus musculus, read-out: Inhibition of Locomotor Activity in Mice (ED50, mg/kg, IP)
Protocol: as §1

[3] = target: dopamine D2 receptor (h-D2 Receptors) (Homo sapiens, UniProt P14416); assay: Inhibition of [^3 H]N-0437 Binding to h-D2 Receptors; details: [^3 H]N-0437 ligand
Chain of dopamine D2 receptor (h-D2 Receptors) (P14416 whole entry): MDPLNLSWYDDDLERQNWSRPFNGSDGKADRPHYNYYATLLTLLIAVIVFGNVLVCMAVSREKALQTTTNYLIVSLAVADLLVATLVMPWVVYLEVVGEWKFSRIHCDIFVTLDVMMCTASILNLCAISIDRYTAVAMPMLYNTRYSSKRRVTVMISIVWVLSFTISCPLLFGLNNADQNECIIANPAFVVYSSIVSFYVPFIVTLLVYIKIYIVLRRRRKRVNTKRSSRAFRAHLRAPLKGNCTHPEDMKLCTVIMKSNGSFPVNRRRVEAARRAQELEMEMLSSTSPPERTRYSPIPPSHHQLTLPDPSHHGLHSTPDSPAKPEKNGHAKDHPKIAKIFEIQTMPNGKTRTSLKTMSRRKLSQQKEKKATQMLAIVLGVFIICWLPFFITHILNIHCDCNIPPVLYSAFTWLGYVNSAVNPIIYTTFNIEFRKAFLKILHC
Protocol: Thus, the compounds of Formula I were tested for their ability to inhibit spontaneous locomotor activity in mice, a test predictive of antipsychotic activity, according to the assay described by McLean J. R., et al., Pharmacology, Biochemistry and Behavior, 1978;8:97-99; for their ability to bind to the dopamine D2 receptor using [^3 H]-2-(N-propyl-N-2-thienylethylamino)-5-hydroxytetralin ([^3 H)N-0437) as the ligand according to the method disclosed in Van der Weide J., et al., Eur. J. Pharmacol., 1987;134:211-219; and for their ability to bind to the serotonin 5HT1A receptor using [^3 H]-8-hydroxy-dipropylaminotetralin ([^3 H]-8-OH-DPAT) as the ligand according to the method disclosed in Peroutka S. J., et al., Brain Res., 1985;344:167-171. The above test methods are incorporated herein by reference.

Ki [1]	Ki [3]	SMILES	ED50 ([2]; mice, IP, ED50)	ED50 ([2]; ip)
–	–	c1ccc(N2CCN(CC[C@H]3CC[C@H](Nc4ncccn4)CC3)CC2)nc1 [Example 1a, trans-{4-[2-(4-Pyridin-2-yl-piperazin-1-yl)-ethyl]-cyclohexyl}-pyrimidin-2-yl-amine]	0.24 mg/kg	–
1.9 nM	28 nM	c1ccc(N2CCN(CC[C@H]3CC[C@@H](Nc4ncccn4)CC3)CC2)cc1 [Example 9, cis-{4-[2-(4-Phenyl-piperazin-1-yl)-ethyl]-cyclohexyl}-pyrimidin-2-yl-aminehydrochloride]	–	–
–	–	FC(F)(F)c1cccc(N2CCN(CC[C@H]3CC[C@H](Nc4ncccn4)CC3)CC2)c1 [Example 12, trans-Pyrimidin-2-yl-(4-{2-[4-(3-trifluoromethyl-phenyl)-piperazin-1-yl]-ethyl}-cyclohexyl)-amine]	4.4 mg/kg	–
–	–	COc1ccccc1N1CCN(CC[C@H]2CC[C@H](Nc3ncccn3)CC2)CC1 [Example 13, trans-(4-{2-[4-(2-Methoxy-phenyl)-piperazin-1-yl]ethyl}-cyclohexyl)-pyrimidin-2-yl-amine]	0.5 mg/kg	–
4.4 nM	8.3 nM	Fc1ccc(N2CCN(CC[C@H]3CC[C@H](Nc4ncccn4)CC3)CC2)cc1 [Example 15, trans-(4-{2-[4-(4-Fluoro-phenyl)-piperazin-1-yl]-ethyl}-cyclohexyl)-pyrimidin-2-yl-amine]	0.7 mg/kg	–
–	–	C1=C(c2ccccc2)CCN(CC[C@H]2CC[C@H](Nc3ncccn3)CC2)C1 [Example 16, trans-{4-[2-(4-Phenyl-3,6-dihydro-2H-pyridin-1-yl)-ethyl]-cyclohexyl}-pyrimidin-2-yl-amine]	–	0.25 mg/kg
–	–	c1cnc(N[C@H]2CC[C@H](CCN3CCN(c4nccs4)CC3)CC2)nc1 [Example 17, trans-Pyrimidin-2-yl-{4-[2-(4-thiazol-2-yl-piperazin-1-yl)-ethyl]-cyclohexyl}-amine]	0.3 mg/kg	–
–	25.3 nM	c1cnc(N[C@H]2CC[C@H](CCN3CCN(c4cccnc4)CC3)CC2)nc1 [Example 20, trans-{4-[2-(4-Pyridin-3-yl-piperazin-1-yl)-ethyl]-cyclohexyl}-pyrimidin-2-yl-amine]	–	–
1.2 nM	1.4 nM	c1ccc(N2CCN(CC[C@H]3CC[C@H](Nc4ccccn4)CC3)CC2)cc1 [Example 24, trans-{4-[2-(4-Phenyl-piperazin-1-yl)-ethyl]cyclohexyl}-pyridin-2-yl-amine]	0.2 mg/kg	–
7.9 nM	2.35 nM	c1ccc(N2CCN(CC[C@H]3CC[C@H](Nc4nccs4)CC3)CC2)cc1 [Example 26, trans-{4-[2-(4-Phenyl-piperazin-1-yl)-ethyl]-cyclohexyl}-thiazol-2-yl-amine]	–	–
5.1 nM	0.93 nM	c1ccc(N2CCN(CC[C@H]3CC[C@H](Nc4cnccn4)CC3)CC2)cc1 [Example 27, trans-{4-[2-(4-Phenyl-piperazin-1-yl)-ethyl]-cyclohexyl}-pyrazin-2-yl-amine]	0.18 mg/kg	–

SMILES	Ki [1]	Ki [3]	ED50 ([2]; mice, IP, ED50)	ED50 ([2]; ip)
Cl.c1ccc(N2CCN(CC[C@H]3CC[C@@H](Nc4ncccn4)CC3)CC2)nc1 [Example 1, cis-{4-[2-(4-Pyridin-2-yl-piperazin-1-yl)-ethyl]-cyclohexyl}-pyrimidin-2-yl-amine hydrochloride]	8.8 nM	–	1.2 mg/kg	–
c1ccc(N2CCN(CC[C@H]3CC[C@H](Nc4ncccn4)CC3)CC2)cc1 [Example 2, trans-{4-[2-(4-Phenyl-piperazin-1-yl)-ethyl]cyclohexyl}-pyrimidin-2-yl-amine]	3.1 nM	3.4 nM	0.3 mg/kg	–
